Laboratory results as given in patent US8680272B2, “3-arylethynyl substituted quinazolinone compounds” (Council of Scientific & Industrial Research, priority 2011, dated 2014).

Legend:
HOP-92 = test: Anticancer activity, SRB assay, non-small lung cell line HOP-92; format: cell-based, human; details: Homo sapiens; Non-small lung HOP-92; 48 h continuous drug exposure; —^b means GI50 values not attained at the concentrations used; read-out: Growth Inhibition GI50
Description: (§1) Some of biological activity studies were carried out at the National Cancer Institute (NCI), Maryland, USA.
(§2) The compounds were evaluated for anticancer activity against sixty human cancer cells derived from nine cancer types (leukemia cell line, non-small-cell lung cell line, colon cell line, CNS cell line, melanoma cell line, ovarian cell line, prostate cell line, renal cell line and breast cancer cell line) as shown in Table 1. For each compound, dose response curves for each cell line were measured at a minimum of five concentrations at 10 fold dilutions. A protocol of 48 h continuous drug exposure was used and a sulforhodamine B (SRB) protein assay was used to estimate cell viability or growth.

SNB-75 = test: Anticancer activity, SRB assay, CNS cell line SNB-75; format: cell-based, human; details: Homo sapiens; CNS SNB-75; 48 h continuous drug exposure; —^b means GI50 values not attained at the concentrations used; read-out: Growth Inhibition GI50
Description: as §1, §2

HT29 = test: Anticancer activity, SRB assay, colon cell line HT29; format: cell-based; details: Homo sapiens, HT-29, 48 h continuous drug exposure, read-out: Growth Inhibition GI50
Description: as §1, §2

CAKI-1 = test: Anticancer activity, SRB assay, renal cell line CAKI-1; format: cell-based; details: Homo sapiens; Renal CAKI-1; 48 h continuous drug exposure; read-out: Growth Inhibition GI50
Description: as §1, §2

MCF7 = test: Anticancer activity, SRB assay, breast cell line MCF7; format: cell-based; details: Homo sapiens, 48 h continuous drug exposure, read-out: Growth Inhibition GI50
Description: as §1, §2

SF-268 = test: Anticancer activity, SRB assay, CNS cell line SF-268; format: cell-based, human; details: Homo sapiens; CNS SF-268; 48 h continuous drug exposure; —^b means GI50 values not attained at the concentrations used; read-out: Growth Inhibition GI50
Description: as §1, §2

[1] = tested on: seven ovarian cancer cell lines (IGROV1, OVCAR-3, OVCAR-4, OVCAR-5, OVCAR-8, NCI/ADR-RES and SK-OV-3); test: Anticancer activity, SRB assay, ovarian panel; format: cell-based, human
Description: as §1, §2

[2] = tested on: eight renal cancer cell line (786-0, A498, ACHN, CAKI-1, SN12C, TK-10, UO-31 and RXF 393); test: Anticancer activity, SRB assay, renal panel; format: cell-based, human; parameters: mean graph midpoint values (MG_MID) of Log10LC50 / mean graph midpoint values (MG_MID) of log10 TGI (Log10TGI50): unit not given here
Description: as §1, §2

MALME-3M = test: Anticancer activity, SRB assay, melanoma cell line MALME-3M; format: cell-based; details: Homo sapiens; Melanoma MALME-3M; 48 h continuous drug exposure; read-out: Growth Inhibition GI50
Description: as §1, §2

PC-3 = test: Anticancer activity, SRB assay, prostate cell line PC-3; format: cell-based, human; details: Homo sapiens; Prostate PC-3; 48 h continuous drug exposure; —^b means GI50 values not attained at the concentrations used; read-out: Growth Inhibition GI50
Description: as §1, §2

[3] = tested on: nine non-small cell lung cancer cell lines (A549/ATCC, EKVX, HOP-62, HOP-92, NCI-H226, NCI-H23, NCI-H322M, NCI-H460 and NCI-H522); test: Anticancer activity, SRB assay, non-small cell lung panel; format: cell-based, human; details: Non-small cell lung
Description: as §1, §2

[4] = as above; format: cell-based, human; details: Homo sapiens; nine non-small cell lung cancer cell lines; exposure period of at least 48 h; read-out: GI50 (range over the panel)
Description: as §1, §2

MOLT-4 = test: Anticancer activity, SRB assay, leukemia cell line MOLT-4; format: cell-based; details: Homo sapiens; Leukemia MOLT-4; 48 h continuous drug exposure; read-out: Growth Inhibition GI50
Description: as §1, §2

NCI-H23 = test: Anticancer activity, SRB assay, non-small lung cell line NCI-H23; format: cell-based; details: Homo sapiens, Non-small lung NCl-H23, 48 h continuous drug exposure, read-out: Growth Inhibition GI50
Description: as §1, §2

SR = test: Anticancer activity, SRB assay, leukemia cell line SR; format: cell-based; details: Homo sapiens, 48 h continuous drug exposure, read-out: Growth Inhibition GI50
Description: as §1, §2

SF-295 = test: Anticancer activity, SRB assay, CNS cell line SF-295; format: cell-based, human; details: Homo sapiens; CNS SF-295; 48 h continuous drug exposure; —^b means GI50 values not attained at the concentrations used; read-out: Growth Inhibition GI50
Description: as §1, §2

OVCAR-5 = test: Anticancer activity, SRB assay, ovarian cell line OVCAR-5; format: cell-based, human; details: Homo sapiens; Ovarian OVCAR-5; 48 h continuous drug exposure; —^b means GI50 values not attained at the concentrations used; read-out: Growth Inhibition GI50
Description: as §1, §2

NCI-H522 = test: Anticancer activity, SRB assay, non-small lung cell line NCI-H522; format: cell-based, human; details: Homo sapiens, NCI-H522; Non-small lung NCl-H522; 48 h continuous drug exposure; —^b means GI50 values not attained at the concentrations used; read-out: Growth Inhibition GI50
Description: as §1, §2

EKVX = test: Anticancer activity, SRB assay, non-small lung cell line EKVX; format: cell-based; details: Homo sapiens, 48 h continuous drug exposure, read-out: Growth Inhibition GI50
Description: as §1, §2

OVCAR-4 = test: Anticancer activity, SRB assay, ovarian cell line OVCAR-4; format: cell-based, human; details: Homo sapiens; Ovarian OVCAR-4; 48 h continuous drug exposure; —^b means GI50 values not attained at the concentrations used; read-out: Growth Inhibition GI50
Description: as §1, §2

UO-31 = test: Anticancer activity, SRB assay, renal cell line UO-31; format: cell-based, human; details: Homo sapiens; Renal UO-31; 48 h continuous drug exposure; —^b means GI50 values not attained at the concentrations used; read-out: Growth Inhibition GI50
Description: as §1, §2

SK-OV-3 = test: Anticancer activity, SRB assay, ovarian cell line SK-OV-3; format: cell-based, human; details: Homo sapiens; Ovarian SK-OV-3; 48 h continuous drug exposure; —^b means GI50 values not attained at the concentrations used; read-out: Growth Inhibition GI50
Description: as §1, §2

CCRF-CEM = test: Anticancer activity, SRB assay, leukemia cell line CCRF-CEM; format: cell-based, human; details: Homo sapiens, 48 h continuous drug exposure, —^b means GI50 values not attained at the concentrations used, read-out: Growth Inhibition GI50
Description: as §1, §2

[5] = tested on: two prostate cancer cell line (PC-3, DU-145); test: Anticancer activity, SRB assay, prostate panel; format: cell-based, human
Description: as §1, §2

ACHN = test: Anticancer activity, SRB assay, renal cell line ACHN; format: cell-based, human; details: Homo sapiens, 48 h continuous drug exposure, —^b means GI50 values not attained at the concentrations used, read-out: Growth Inhibition GI50
Description: as §1, §2

Work on Cc1cc(C#Cc2ccccc2)ccc1-n1c(/C=C/c2ccc(O)cc2)nc2ccccc2c1=O [Compound 4b, (E)-2-(4-Hydroxystyryl)-3-(2-methyl-4-(phenylethynyl)phenyl)quinazolin-4(3H)-one] yielded a GI50 (HOP-92) of 2.5 µM, a GI50 (SNB-75) of 3.66 µM and a GI50 (HT29) of 3.33 µM. The GI50 (CAKI-1) was 3.3 µM, the GI50 (MCF7) was 2.72 µM and the GI50 (SF-268) was 4.56 µM. For the same compound, the GI50 ([1]; Homo sapiens, seven ovarian cancer cell lines, exposure period of at least 48 h, read-out: GI50 (range over the panel)) was 3.09 to 20.6 µM, the “mean graph midpoint values (MG_MID) of log10 TGI (Log10TGI50)” value (“mean graph midpoint values … (Log10TGI50)” below) ([1]; Ovarian, log value of concentration of the compound resulting in total inhibition of net cell growth) was −4.23 and the “mean graph midpoint values (MG_MID) of Log10LC50” value ([1]; Ovarian, log value of the concentration of compounds leading to 50% net cell death) was over −4.00. For the same compound, the “mean graph midpoint values (MG_MID) of Log10GI50” value ([1]; Ovarian, log values of concentration in mol/L causing 50% inhibition of net cell growth) was −5.33 mol/L, the GI50 ([2]; Homo sapiens, eight renal cancer cell line, exposure period of at least 48 h, read-out: in vitro anticancer activity (range over the panel)) was 1.56 to 3.77 µM and the “mean graph midpoint values … (Log10TGI50)” value ([2]; Renal, log value of concentration of the compound resulting in total inhibition of net cell growth) was −4.65. For the same compound, the “mean graph midpoint values (MG_MID) of Log10LC50” value ([2]; Renal, log value of the concentration of compounds leading to 50% net cell death) was over −4.00, the “mean graph midpoint values (MG_MID) of Log10GI50” value ([2]; Renal, log values of concentration in mol/L causing 50% inhibition of net cell growth) was −5.52 mol/L and the GI50 (MALME-3M) was 2.12 µM. The GI50 (PC-3) was 3.24 µM, the “mean graph midpoint values … (Log10TGI50)” value ([3]; log value of concentration of the compound resulting in total inhibition of net cell growth) was −4.32 and the “mean graph midpoint values (MG_MID) of Log10LC50” value ([3]; log value of the concentration of compounds leading to 50% net cell death) was −4.04. The “mean graph midpoint values (MG_MID) of Log10GI50” value ([3]; log values of concentration in mol/L causing 50% inhibition of net cell growth) was −5.47 mol/L, the GI50 [4] was 2.22 to 13.1 µM and the GI50 (MOLT-4) was 2.36 µM. It also gave a GI50 (NCI-H23) of 3.62 µM, a GI50 (SR) of 2.45 µM and a GI50 (SF-295) of 2.85 µM. It also gave a GI50 (OVCAR-5) of 4.59 µM, a GI50 (NCI-H522) of 2.26 µM and a GI50 (EKVX) of 2.43 µM. The GI50 (OVCAR-4) was 3.17 µM, the GI50 (UO-31) was 2.06 µM and the GI50 (SK-OV-3) was 9.91 µM. The GI50 (CCRF-CEM) was 3.26 µM, the GI50 ([5]; Homo sapiens, DU-145, two prostate cancer cell line, exposure period of at least 48 h, read-out: GI50 (range over the panel)) was 3.24 to 4.87 µM and the “mean graph midpoint values … (Log10TGI50)” value ([5]; Prostate, log value of concentration of the compound resulting in total inhibition of net cell growth) was over −4.00. For the same compound, the “mean graph midpoint values (MG_MID) of Log10LC50” value ([5]; Prostate, log value of the concentration of compounds leading to 50% net cell death) was over −4.00, the “mean graph midpoint values (MG_MID) of Log10GI50” value ([5]; Prostate, log values of concentration in mol/L causing 50% inhibition of net cell growth) was −5.40 mol/L and the GI50 (ACHN) was 2.46 µM.
